Reference: ChEMBL document CHEMBL4024701, “Optimization and Structure-Activity Relationships of Phosphinic Pseudotripeptide Inhibitors of Aminopeptidases That Generate Antigenic Peptides” (J Med Chem, 2016)
One block for each compound: values may come before it.

Key:
[1] = Effect on cross-presentation activity of IRAP-/- knockdown C57Bl/6 mouse CD8alpha-positive dendritic cells assessed as IL2 level in CD8+ T-cells isolated from lymph nodes of Rag-1-/- C57Bl/6 OT-I mouse at 3.3 uM pre-incubated for 60 mins followed by addition of ovalbumin measured after 6 hrs by sandwich ELISA assay; details: cd8alpha-positive dendritic cell
[2] = biological target: T1, Leucyl-cystinyl aminopeptidase (Mus musculus) (UniProt Q8C129); test: (§1) Inhibition of IRAP in C57Bl/6 mouse CD11b-positive dendritic cells assessed as reduction of IRAP-dependent cross-presentation activity by measuring IL2 level in CD8+ T-cells isolated from lymph nodes of Rag-1-/- C57Bl/6 OT-I mouse at 3 to 3333 nM pre-incubated for 60 mins followed by addition of ovalbumin measured after 6 hrs by sandwich ELISA
T1 sequence (whole entry): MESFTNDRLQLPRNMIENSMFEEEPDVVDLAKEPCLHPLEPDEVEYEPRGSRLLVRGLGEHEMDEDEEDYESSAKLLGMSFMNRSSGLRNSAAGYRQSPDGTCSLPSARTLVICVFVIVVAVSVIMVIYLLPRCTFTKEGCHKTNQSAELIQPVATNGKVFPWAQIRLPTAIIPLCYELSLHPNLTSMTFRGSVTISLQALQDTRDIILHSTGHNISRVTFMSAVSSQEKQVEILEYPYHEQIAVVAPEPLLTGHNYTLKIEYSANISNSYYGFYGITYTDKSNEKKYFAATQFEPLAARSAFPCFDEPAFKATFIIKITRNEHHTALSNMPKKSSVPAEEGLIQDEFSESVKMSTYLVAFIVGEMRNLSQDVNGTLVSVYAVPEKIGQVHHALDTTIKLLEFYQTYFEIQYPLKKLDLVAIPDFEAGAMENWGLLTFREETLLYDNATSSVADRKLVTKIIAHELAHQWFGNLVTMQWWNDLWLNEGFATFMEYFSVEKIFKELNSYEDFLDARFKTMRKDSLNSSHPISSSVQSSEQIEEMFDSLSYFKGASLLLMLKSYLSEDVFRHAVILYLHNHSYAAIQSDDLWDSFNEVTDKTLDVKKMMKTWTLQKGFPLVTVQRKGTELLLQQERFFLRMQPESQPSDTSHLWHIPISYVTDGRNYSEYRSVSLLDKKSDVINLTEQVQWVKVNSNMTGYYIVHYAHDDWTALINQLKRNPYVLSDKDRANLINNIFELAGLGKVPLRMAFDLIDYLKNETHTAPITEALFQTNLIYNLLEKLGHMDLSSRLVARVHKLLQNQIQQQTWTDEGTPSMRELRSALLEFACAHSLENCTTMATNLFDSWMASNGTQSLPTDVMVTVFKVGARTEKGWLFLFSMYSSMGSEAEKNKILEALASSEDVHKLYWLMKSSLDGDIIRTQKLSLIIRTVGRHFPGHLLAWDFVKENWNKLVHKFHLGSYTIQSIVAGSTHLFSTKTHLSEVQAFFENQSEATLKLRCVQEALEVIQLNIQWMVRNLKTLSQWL

[3] = (§2) Effect on cross-presentation activity of IRAP-/- knockdown C57Bl/6 mouse CD8alpha-positive T cells assessed as IL2 level in CD8+ T-cells isolated from lymph nodes of Rag-1-/- C57Bl/6 OT-I mouse at 3 to 1000 nmol/L pre-incubated for 60 mins followed by addition of ovalbumin measured after 6 hrs by sandwich ELISA assay; type: ADME, cell-based
[4] = as §2, with “CD11b-positive dendritic” for “CD8alpha-positive T”, “3.3 uM” for “3 to 1000 nmol/L”; type: ADME, cell-based; details: cd11b-positive dendritic cell
[5] = biological target: T1, Leucyl-cystinyl aminopeptidase (Mus musculus); test: as §1, with “CD8 alpha-positive” for “CD11b-positive dendritic”
[6] = as §2, with “CD11b-positive dendritic” for “CD8alpha-positive T”; type: ADME, cell-based; details: cd11b-positive dendritic cell
[7] = biological target: Leucyl-cystinyl aminopeptidase (Homo sapiens, UniProt Q9UIQ6); test: Inhibition of IRAP (unknown origin) expressed in HEK 293S GnTI(-) cells by in vitro fluorimetric assay; type: cell-based
[8] = biological target: Endoplasmic reticulum aminopeptidase 1 (Homo sapiens, UniProt Q9NZ08); test: Inhibition of ERAP1 (unknown origin) expressed in Hi5 cells by in vitro fluorimetric assay
Chain of Endoplasmic reticulum aminopeptidase 1 (Q9NZ08 whole entry): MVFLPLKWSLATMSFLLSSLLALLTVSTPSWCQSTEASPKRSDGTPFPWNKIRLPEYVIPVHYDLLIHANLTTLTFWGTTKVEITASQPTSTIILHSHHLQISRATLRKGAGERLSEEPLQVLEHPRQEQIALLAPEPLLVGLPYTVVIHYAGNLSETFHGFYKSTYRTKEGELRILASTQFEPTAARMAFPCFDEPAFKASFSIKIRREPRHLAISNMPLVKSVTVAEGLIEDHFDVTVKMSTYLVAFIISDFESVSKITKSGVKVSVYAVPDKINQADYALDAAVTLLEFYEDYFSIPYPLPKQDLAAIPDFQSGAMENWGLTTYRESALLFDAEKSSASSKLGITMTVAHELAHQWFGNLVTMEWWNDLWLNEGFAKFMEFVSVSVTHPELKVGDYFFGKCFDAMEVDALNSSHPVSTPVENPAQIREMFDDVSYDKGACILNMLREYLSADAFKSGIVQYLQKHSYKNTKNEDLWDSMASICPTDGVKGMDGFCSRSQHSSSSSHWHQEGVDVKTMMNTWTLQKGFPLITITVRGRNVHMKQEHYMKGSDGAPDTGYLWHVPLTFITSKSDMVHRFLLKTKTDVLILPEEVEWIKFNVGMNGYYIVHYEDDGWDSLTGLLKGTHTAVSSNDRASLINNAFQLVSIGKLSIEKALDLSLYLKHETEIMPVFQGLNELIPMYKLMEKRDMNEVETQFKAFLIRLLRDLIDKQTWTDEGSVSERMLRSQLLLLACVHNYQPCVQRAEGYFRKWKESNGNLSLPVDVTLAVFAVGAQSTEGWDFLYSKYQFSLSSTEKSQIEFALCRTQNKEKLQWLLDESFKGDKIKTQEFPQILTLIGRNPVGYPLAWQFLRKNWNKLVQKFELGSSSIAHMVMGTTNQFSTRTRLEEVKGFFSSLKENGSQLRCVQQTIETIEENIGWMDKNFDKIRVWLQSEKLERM

Chain of Leucyl-cystinyl aminopeptidase (Q9UIQ6 whole entry): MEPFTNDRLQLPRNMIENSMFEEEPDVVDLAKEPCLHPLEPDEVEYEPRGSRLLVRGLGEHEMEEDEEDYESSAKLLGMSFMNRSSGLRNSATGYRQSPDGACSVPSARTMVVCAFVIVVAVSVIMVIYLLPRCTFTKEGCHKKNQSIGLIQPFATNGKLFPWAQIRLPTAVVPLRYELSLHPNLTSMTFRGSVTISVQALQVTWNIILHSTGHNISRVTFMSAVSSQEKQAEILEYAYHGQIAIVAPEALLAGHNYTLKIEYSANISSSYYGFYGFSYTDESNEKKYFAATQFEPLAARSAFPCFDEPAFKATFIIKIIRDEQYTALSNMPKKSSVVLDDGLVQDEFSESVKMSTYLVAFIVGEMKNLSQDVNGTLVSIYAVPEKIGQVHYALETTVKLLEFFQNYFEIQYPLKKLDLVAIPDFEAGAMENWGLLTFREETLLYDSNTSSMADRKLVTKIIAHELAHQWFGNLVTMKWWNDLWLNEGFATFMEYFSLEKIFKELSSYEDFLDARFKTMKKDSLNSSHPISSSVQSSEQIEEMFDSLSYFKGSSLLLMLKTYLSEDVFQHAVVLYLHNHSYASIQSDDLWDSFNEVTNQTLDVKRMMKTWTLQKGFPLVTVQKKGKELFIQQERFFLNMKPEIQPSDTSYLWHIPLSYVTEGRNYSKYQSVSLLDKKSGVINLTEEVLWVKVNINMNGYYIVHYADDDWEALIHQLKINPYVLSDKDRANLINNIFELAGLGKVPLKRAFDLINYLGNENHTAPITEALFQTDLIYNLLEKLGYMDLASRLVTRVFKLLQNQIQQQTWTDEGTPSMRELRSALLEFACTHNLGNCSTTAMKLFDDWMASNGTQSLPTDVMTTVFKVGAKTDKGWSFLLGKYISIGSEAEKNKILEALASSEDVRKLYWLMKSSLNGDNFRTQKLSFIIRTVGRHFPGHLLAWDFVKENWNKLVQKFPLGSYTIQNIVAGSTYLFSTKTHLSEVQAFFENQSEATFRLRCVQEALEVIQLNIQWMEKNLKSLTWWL

- inhibition [2]: Dose-dependent effect
- inhibition [5]: Dose-dependent effect
Compound: NC(=O)[C@H](Cc1ccccc1)NC(=O)[C@H](CC(c1ccccc1)c1ccccc1)CP(=O)(O)[C@@H](N)CCc1ccccc1
- Activity [1]: Toxic
- Activity [3]: Non-Toxic
- Activity [4]: Toxic
- Activity [6]: Non-Toxic

- IC50 [7]: 0.002 µM
Compound: C#CC[C@H](CP(=O)(O)[C@@H](N)CCc1ccccc1)C(=O)N[C@@H](Cc1ccccc1)C(N)=O

- IC50 [8]: > 35 µM
Compound: NC(=O)[C@H](Cc1ccccc1)NC(=O)[C@H](Cc1cc(-c2ccccc2)cc(-c2ccccc2)c1)CP(=O)(O)[C@@H](N)CCc1ccccc1

- IC50 [8]: > 100 µM
Compound: NC(=O)[C@H](Cc1ccccc1)NC(=O)[C@@H](Cc1cc(-c2ccccc2)cc(-c2ccccc2)c1)CP(=O)(O)[C@@H](N)CCc1ccccc1
